Values of other authors, collected in patent US8470873B2, “Vitamin E succinate stabilized pharmaceutical compositions, methods for the preparation and the use thereof” (Mast Therapeutics, Inc., priority 2006, dated 2013).

Assays:
[1] = hydrolysis

Row | solubility in water | stability in the presence of water [1] | Compound
1 | insoluble |  | CC(=O)O[C@H]1C(=O)[C@@]2(C)[C@H]([C@H](OC(=O)c3ccccc3)[C@]3(O)C[C@H](OC(=O)[C@H](O)[C@@H](NC(=O)c4ccccc4)c4ccccc4)C(C)=C1C3(C)C)[C@]1(OC(C)=O)CO[C@@H]1C[C@@H]2O [paclitaxel]
2 |  | very unstable | CC(=O)O[C@@]12CO[C@@H]1C[C@H](O)[C@@]1(C)C(=O)[C@H](O)C3=C(C)[C@@H](OC(=O)[C@H](O)[C@@H](NC(=O)OC(C)(C)C)c4ccccc4)C[C@@](O)([C@@H](OC(=O)c4ccccc4)[C@H]21)C3(C)C [Docetaxel, (2R,3S)-N-carboxy-3-phenylisoserine,N-tert-butyl ester, 13-ester with 5β-20-epoxy-1,2α-,4,7β,10β,13α-hexahydroxytax-11-en-9-one 4-acetate 2-benzoate, trihydrate]
